We go through five compounds from patent publication US20260102451A1, “RUMINANT METHANE PRODUCTION INHIBITOR” (SDS BIOTECH K.K., priority 2022, published 2026).

Molecules are shown by their SMILES.

Holding throughout (assay type): cell-based, Holstein milking cows
Assay [1] deals with rumen fluid culture. Nature of the assay: Methane production measurement system using rumen culture (Example 1). The settings on record: for methane amount (mean ± SD): 39° C., 17 hours. The protocol: Cashew nut shell liquid (CNSL) cold-pressed and extracted from cashew nut shells was obtained. For culture inoculum, rumen fluids (filtrates through quadruple gauzes) collected orally from Holstein milking cows 90 days or longer after calving were used. 4 mL of the rumen fluid and 6 mL of artificial saliva (McDougal's artificial saliva) were added, and the mixture was used for culturing. […] Similarly, DL-malic acid and fumaric acid were dissolved in ethanol and added such that they had desired concentrations in the solution. To equalize the effect of ethanol, only ethanol was added to a no-addition (control) area. Thereafter, the resulting products were left for several hours to vaporize ethanol, to which 50 mg of corn starch, 75 mg of concentrate feed powder, and 75 mg of timothy hay powder were added as culture substrates. […] To these test tubes, a total of 10 ml of diluted rumen fluid and artificial saliva in the above mixture ratio was added, and the tubes were incubated anaerobically in an incubator (39° C., 17 hours) with butyl rubber caps and plastic screw caps provided while nitrogen gas was blown into the head space. Each culturing was performed in triplicate. The concentrations of methane and acetic acid in volatile fatty acids were both analyzed by FID gas chromatography.

Assay [2] relates to rumen fluid culture. Put plainly: Methane production measurement system using rumen culture (Example 3). The settings on record: for methane amount (mean ± SD): 39° C., 17 hours; for methane amount % reduction vs cont: ^ = increase. The protocol:
Cashew nut shell liquid (CNSL) cold-pressed and extracted from cashew nut shells was obtained. For culture inoculum, rumen fluids (filtrates through quadruple gauzes) collected orally from Holstein milking cows 90 days or longer after calving were used. 4 mL of the rumen fluid and 6 mL of artificial saliva (McDougal's artificial saliva) were added and the mixture was used for culturing. […] CNSL was dissolved in ethanol and added to a Hungate tube such that it had any concentration in the solution. […] To equalize the effect of ethanol, only ethanol was added to a no-addition (control) area. […] To these test tubes, a total of 10 mL of diluted rumen fluid and artificial saliva in the above mixture ratio was added, and the tubes were incubated anaerobically in an incubator (39° C., 17 hours) with butyl rubber caps and plastic screw caps provided while nitrogen gas was blown into the head space. Each culturing was performed in triplicate. The concentrations of methane and acetic acid in volatile fatty acids were both analyzed by FID gas chromatography.

For assay [3], the system named is rumen fluid culture. Nature of the assay: Methane production measurement system using rumen culture (Example 2). The settings on record: for methane amount (mean ± SD): 39° C., 17 hours. The method, then: Cashew nut shell liquid (CNSL) cold-pressed and extracted from cashew nut shells was obtained. For culture inoculum, rumen fluids (filtrates through quadruple gauzes) collected orally from Holstein milking cows 90 days or longer after calving were used. 4 mL of the rumen fluid and 6 mL of artificial saliva (McDougal's artificial saliva) were added and the mixture was used for culturing. […] CNSL was dissolved in ethanol and added to a Hungate tube such that it had any concentration in the solution. […] To equalize the effect of ethanol, only ethanol was added to a no-addition (control) area. Thereafter, the resulting products were left for several hours to vaporize ethanol, to which 50 mg of corn starch, 75 mg of concentrate feed powder, and 75 mg of timothy hay powder were added as culture substrates. To these test tubes, a total of 10 ml of diluted rumen fluid and artificial saliva in the above mixture ratio was added, and the tubes were incubated anaerobically in an incubator (39° C., 17 hours) with butyl rubber caps and plastic screw caps provided while nitrogen gas was blown into the head space. Each culturing was performed in triplicate. The concentrations of methane and acetic acid in volatile fatty acids were both analyzed by FID gas chromatography.

Where [4] appears, read: 1000 mg/L alone, ▴ = reduction, ^ = increase.

`O=C(O)CC(O)C(=O)O` (racemic) [DL-malic acid]: the “acetate amount % vs cont” value in the assay on rumen fluid culture [1] (500 mg/L alone) is recorded as 123%; with rumen fluid culture [1] (1000 mg/L alone), 111%; with rumen fluid culture [2] (500 mg/L alone), 114%; in the assay on rumen fluid culture [2] (1000 mg/L alone) it was 102%; in the assay with rumen fluid culture [2] (2000 mg/L alone), 105%. Moreover, the “acetate amount (mean ± SD)” value is 4.18 ± 0.11 g/L in the assay on rumen fluid culture [1] (500 mg/L alone); 3.76 ± 0.11 g/L in the assay with rumen fluid culture [1] (1000 mg/L alone); 4.18 ± 0.07 g/L in the assay on rumen fluid culture [2] (500 mg/L alone); 3.76 ± 0.27 g/L in the assay on rumen fluid culture [2] (1000 mg/L alone); 3.85 ± 0.38 g/L in the assay on rumen fluid culture [2] (2000 mg/L alone). Besides, the “methane amount (mean ± SD)” value in the assay with rumen fluid culture [1] (500 mg/L alone) is reported as 6.22 ± 0.93 mL/tube; with rumen fluid culture [1] (1000 mg/L alone), 5.47 ± 0.01 mL/tube; in the assay with rumen fluid culture [2] (500 mg/L alone) it was 6.13 ± 0.92 mL/tube; in the assay with rumen fluid culture [2] (1000 mg/L alone), 6.13 ± 0.00 mL/tube; in the assay on rumen fluid culture [2] (2000 mg/L alone) it was 5.95 ± 0.70 mL/tube. The “methane amount % reduction vs cont” value with rumen fluid culture [1] (setting [4]) is reported as “▴0%”; in the assay with rumen fluid culture [2] (2000 mg/L alone), “▴3%”. Moreover, in the assay with rumen fluid culture [1] (CNSL and garlic powder in combination, 500 to 1,000 mg/L DL-malic acid alone, 100 to 200 mg/L garlic powder), the “improvement in the methane reduction rate” value is “did not show significant improvement”.
On to `O=C(O)CC(O)(CC(=O)O)C(=O)O` [citric acid], for which the “acetate amount % vs cont” value amounted to 115% in the assay on rumen fluid culture [3] (500 mg/L alone); 119% in the assay on rumen fluid culture [3] (1000 mg/L alone); 99% with rumen fluid culture [2] (500 mg/L alone); 102% in the assay on rumen fluid culture [2] (1000 mg/L alone); 128% in the assay with rumen fluid culture [2] (2000 mg/L alone). The “acetate amount (mean ± SD)” value in the assay on rumen fluid culture [3] (500 mg/L alone) is listed as 4.25 ± 0.16 g/L; in the assay with rumen fluid culture [3] (1000 mg/L alone), 4.42 ± 0.14 g/L; with rumen fluid culture [2] (500 mg/L alone), 3.64 ± 0.70 g/L; in the assay with rumen fluid culture [2] (1000 mg/L alone), 3.76 ± 1.10 g/L; in the assay with rumen fluid culture [2] (2000 mg/L alone) it was 4.71 ± 0.15 g/L. The “methane amount (mean ± SD)” value with rumen fluid culture [3] (500 mg/L alone) amounted to 5.12 ± 0.67 mL/tube; in the assay on rumen fluid culture [3] (1000 mg/L alone), 3.77 ± 1.64 mL/tube; with rumen fluid culture [2] (500 mg/L alone) it was 6.53 ± 0.43 mL/tube; with rumen fluid culture [2] (1000 mg/L alone), 6.41 ± 1.49 mL/tube; in the assay with rumen fluid culture [2] (2000 mg/L alone), 5.45 ± 2.09 mL/tube. Besides, the “methane amount % reduction vs cont” value in the assay on rumen fluid culture [3] (setting [4]) was “▴21%”; with rumen fluid culture [2] (2000 mg/L alone), “▴11%”.
In the case of `O=C(O)/C=C/C(=O)O` [fumaric acid], in the assay with rumen fluid culture [1] (500 mg/L alone), the “acetate amount % vs cont” value is reported as 114%, the “acetate amount (mean ± SD)” value is on record as 3.86 ± 0.12 g/L and the “methane amount (mean ± SD)” value is 5.94 ± 0.01 mL/tube.
Take `CC(=O)C(=O)O` [pyruvic acid]: in the assay with rumen fluid culture [3] (500 mg/L alone), the “acetate amount % vs cont” value is 109%, the “acetate amount (mean ± SD)” value stood at 4.04 ± 0.31 g/L and the “methane amount (mean ± SD)” value stood at 5.58 ± 1.26 mL/tube. In addition, in the assay with rumen fluid culture [3] (1000 mg/L alone), the “acetate amount % vs cont” value came out at 118%, the “acetate amount (mean ± SD)” value was 4.36 ± 0.02 g/L and the “methane amount (mean ± SD)” value amounted to 5.39 ± 0.04 mL/tube.
With `O=C(O)CCC(=O)O` [succinic acid], in the assay on rumen fluid culture [3] (500 mg/L alone), the “acetate amount % vs cont” value is given as 115%, the “acetate amount (mean ± SD)” value stood at 4.26 ± 0.42 g/L and the “methane amount (mean ± SD)” value is listed as 5.28 ± 1.76 mL/tube. Also, in the assay with rumen fluid culture [3] (1000 mg/L alone), the “acetate amount % vs cont” value is on record as 106%, the “acetate amount (mean ± SD)” value was 3.91 ± 0.58 g/L and the “methane amount (mean ± SD)” value amounted to 6.24 ± 0.83 mL/tube.
